Experimental data published in US10196344B2, “Glaucocalyxin a derivative and preparation method and application thereof” (SUZHOU PHARMAVAN CANCER RESEARCH CENTER CO., LTD., priority 2015, dated 2019).
“Also recorded” adds a separate entry of the source. Like-named read-outs stand apart in the source and are kept apart here.

Experiments:
[1] = test system: MDA-MB-231 breast cancer cell line; experiment: Cell proliferation assay (MTT), MDA-MB-231; type: cell-based; conditions: 48 h; for Inhibitory rate of the cell proliferation versus concentration: 1-100 μmol/L; for IC50 for the inhibition of proliferation, compared among five cell lines: MTT
Description: (§1) Cell Proliferation Assay (MTT): The experiment assaying the inhibition of dimethylamino glaucocalyxin A hydrochloride salt (hereinafter referred to as GH02) and glaucocalyxin A (i.e. GLA) on cell proliferation of cancer cell lines was performed as follows: cells of cancer cell lines were adjusted to a density of 10^4/100 μL and were seeded into 96-well plates at 100 μL per well and cultured overnight until the cells were completely adherent and grown up to 70-80% confluence. The mother liquid of GH02 and GLA (both of which concentrations were 100 mM) were diluted with complete medium, respectively, to final concentrations of 1, 3.125, 6.25, 12.5, 25, 50, 100 μmol/L, and then such diluted solutions were added into wells of 96-well plates, with each concentration being performed in 4 replicates, and the group without cells acting as blank control, and then incubated in the incubator at 372. After incubation for 48 h, MTT was added to each well to a final concentration of 0.5 mg/ml and further incubated in the incubator at 372 for 4 h. Subsequently, the supernatant was removed, 150 μL DMSO was added to each well and incubated with shaking for 10 min, and then the absorbance was measured at 490 nm on a microplate reader. Inhibitory rate of the cell proliferation=[(absorbance of the control group−absorbance of blank)−(absorbance of the medication group−absorbance of blank)]/(absorbance of the control group−absorbance of blank)% As shown in FIG. 4 to FIG. 6, MDA-MB-231 and MCF-7 are cell lines of breast cancer, SGC-7901 is a cell line of gastric cancer, U251 is a cell line of glioma, and A549 is a cell line of lung cancer.

[2] = Water solubility; type: physicochemical; conditions: found by the inventors by means of experiments
[3] = test system: A549 cell line of lung cancer; experiment: Cell proliferation assay (MTT), A549; type: cell-based; conditions: 1-100 μmol/L, 48 h, FIG. 7-8
Description: as §1, with “The mother liquid of GH02 and GLA (both of which concentrations were 100 mM) were diluted with complete medium, respectively, to final concentrations of 1, 3.125, 6.25, 12.5, 25, 50, 100 μmol/L, and then such diluted solutions were added into wells of 96-well plates, with each concentration being performed in 4 replicates, and the group without cells acting as blank control, and then incubated in the incubator at 372. After incubation for 48 h, MTT was added to each well to a final concentration of 0.5 mg/ml and further incubated in the incubator at 372 for 4 h.” left out

[4] = test system: MCF-7 cell line of breast cancer; experiment: Cell proliferation assay (MTT), MCF-7; type: cell-based; conditions: 1-100 μmol/L, 48 h, FIG. 7-8
Description: as §1, with “The mother liquid of GH02 and GLA (both of which concentrations were 100 mM) were diluted with complete medium, respectively, to final concentrations of 1, 3.125, 6.25, 12.5, 25, 50, 100 μmol/L, and then such diluted solutions were added into wells of 96-well plates, with each concentration being performed in 4 replicates, and the group without cells acting as blank control, and then incubated in the incubator at 372. After incubation for 48 h, MTT was added to each well to a final concentration of 0.5 mg/ml and further incubated in the incubator at 372 for 4 h.” left out

[5] = test system: U251 cell line of glioma; experiment: Cell proliferation assay (MTT), U251; type: cell-based; conditions: 1-100 μmol/L, 48 h, FIG. 7-8
Description: as §1, with “The mother liquid of GH02 and GLA (both of which concentrations were 100 mM) were diluted with complete medium, respectively, to final concentrations of 1, 3.125, 6.25, 12.5, 25, 50, 100 μmol/L, and then such diluted solutions were added into wells of 96-well plates, with each concentration being performed in 4 replicates, and the group without cells acting as blank control, and then incubated in the incubator at 372. After incubation for 48 h, MTT was added to each well to a final concentration of 0.5 mg/ml and further incubated in the incubator at 372 for 4 h.” left out

[6] = Oral bioavailability / in vivo pharmacokinetics; conditions: when used as a drug; found by the inventors by means of experiments
[7] = test system: SGC-7901 cell line of gastric cancer; experiment: Cell proliferation assay (MTT), SGC-7901; type: cell-based; conditions: 1-100 μmol/L, 48 h, FIG. 7-8
Description: as §1, with “The mother liquid of GH02 and GLA (both of which concentrations were 100 mM) were diluted with complete medium, respectively, to final concentrations of 1, 3.125, 6.25, 12.5, 25, 50, 100 μmol/L, and then such diluted solutions were added into wells of 96-well plates, with each concentration being performed in 4 replicates, and the group without cells acting as blank control, and then incubated in the incubator at 372. After incubation for 48 h, MTT was added to each well to a final concentration of 0.5 mg/ml and further incubated in the incubator at 372 for 4 h.” left out

[8] = background statement; cited from earlier work
[9] = background statement; cited from earlier work; remark: listed apart in the source

Row | IC50 for the inhibition of proliferation, compared among five cell lines ([1]; FIG. 4-6, hydrochloride) | water solubility [2] | oral bioavailability [6] | IC50 for the inhibition of proliferation, compared among five cell lines ([1]; FIG. 4-6) | SMILES | Inhibitory rate of the cell proliferation versus concentration ([1]; FIG. 7-8, hydrochloride) | Inhibitory rate of the cell proliferation versus concentration [3] | Inhibitory rate of the cell proliferation versus concentration [4] | Inhibitory rate of the cell proliferation versus concentration [5] | Inhibitory rate of the cell proliferation versus concentration [7] | Inhibitory rate of the cell proliferation versus concentration ([1]; FIG. 7-8) | water solubility [8] | bioavailability in vivo [9] | half-life in vivo [9]
1 | lowest IC50 values | good water solubility | high oral bioavailability | – | CN(C)CC1C(=O)C23C(O)C1CCC2[C@]1(C)CCC(=O)C(C)(C)[C@H]1C[C@H]3O.Cl (some centres unmarked) [GH02, dimethylamino glaucocalyxin A hydrochloride] | increased with the increase of the concentration of GH02; also recorded: highest inhibitory rate | increased with the increase of the concentration of GH02 | increased with the increase of the concentration of GH02 | increased with the increase of the concentration of GH02 | increased with the increase of the concentration of GH02 | – | – | – | –
2 | – | – | – | lowest IC50 values | C=C1C(=O)C23C(O)C1CCC2[C@]1(C)CCC(=O)C(C)(C)[C@H]1C[C@H]3O (stereo partly drawn) [GLA, Kaur-16-ene-3,15-dione,(7α, 14R)—] | – | increased with the increase of the concentration of GLA | increased with the increase of the concentration of GLA | increased with the increase of the concentration of GLA | increased with the increase of the concentration of GLA | increased with the increase of the concentration of GLA; also recorded: highest inhibitory rate | poor water solubility | low bioavailability | short half-life
